Test [1] deals with IFNγ induced ICAM-1 (CD54) up-regulation in A549 lung epithelial cells (JAK/Stat pathway). The test is described as follows: A549 Epithelial Line Stimulated with IFNγ (ICAM-1 surface expression, flow cytometry). Type of test: cell-based, human. The note with it: Table III Example 5. The method in brief:
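A549 cells (20,000/well, adhered overnight) pre-treated with compound 1 h, then IFNγ 75 ng/mL for 24 h; compound 30 μM–14 nM in 5% FBS, 0.3% DMSO. Surface ICAM-1 stained with APC anti-CD54, geometric mean by flow cytometry; dose-response gives EC50.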

Test [2] has as its system IFNγ induced ICAM-1 (CD54) up-regulation in U937 human monocytic cells (JAK/Stat pathway). The test is described as follows: U937 IFNγ ICAM1 FACS Assay. Type of test: cell-based. The note with it: Table III Example 6; 10 ng/mL IFNγ, 18-24 hours. The method in brief: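 Flow cytometry gave ICAM-1 (CD54) up-regulation as ICAM-APC geometric mean within the live-cell gate, alongside % viable cells. Human monocytic U937 cells received 3-fold serial compound dilutions for 30 min at 37 °C, followed by IFNγ stimulation lasting 18–24 h. Dose curves yielded EC50s.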

`Cc1ccc(Nc2ncc(C)c(Nc3ccc(CNS(=O)(=O)C4CC4)c(Cl)c3)n2)cc1S(N)(=O)=O` [Compound I-125, N2-(3-aminosulfonyl-4-methyl)phenyl-N4-(3-chloro-4-cyclopropylsulfonylaminomethyl)phenyl-5-methyl-2,4-pyrimidinediamine]: the IC50 was 4.03 µM in test [1] and 0.389 µM in test [2].
`Cc1ccc(Nc2ncc(C)c(Nc3ccc(CN(C)S(=O)(=O)C4CC4)cc3)n2)cc1S(N)(=O)=O` [Compound I-126, N2-(3-aminosulfonyl-4-methyl)phenyl-N4-[4-(N-cyclopropylsulfonyl-N-methyl)aminomethyl]phenyl-5-methyl-2,4-pyrimidinediamine]: the results for the IC50 in test [1] and in test [2] were 5.56 µM and 0.224 µM, respectively.
Consider `Cc1cnc(Nc2cccc(S(=O)(=O)NCc3ccccc3)c2)nc1Nc1ccc(CNS(=O)(=O)C2CC2)cc1` [Compound I-154, N2-(3-benzylaminosulfonyl)phenyl-N4-(4-cyclopropylsulfonylaminomethyl)phenyl-5-methyl-2,4-pyrimidinediamine], for which the IC50 in test [1] came out at 6.35 µM; in test [2], 0.184 µM.
The corresponding values for `CNS(=O)(=O)c1cccc(Nc2ncc(C)c(Nc3ccc(CNS(=O)(=O)C4CC4)cc3)n2)c1` [Compound I-161, N4-(4-cyclopropylsulfonylaminomethyl)phenyl-5-methyl-N2-(3-methylaminosulfonyl)phenyl-2,4-pyrimidinediamine] are 24.4 µM and 0.051 µM.
Regarding `CNS(=O)(=O)c1cccc(Nc2ncc(C)c(Nc3cccc(CNS(=O)(=O)C4CC4)c3)n2)c1` [Compound I-162, N4-(3-cyclopropylsulfonylaminomethyl)phenyl-5-methyl-N2-(3-methylaminosulfonyl)phenyl-2,4-pyrimidinediamine], the IC50 was determined as 1.92 µM in test [1] and 0.155 µM in test [2].
On to `C#CCNS(=O)(=O)c1ccc(Nc2ncc(C)c(Nc3ccc(CNS(=O)(=O)C4CC4)cc3)n2)cc1` [Compound I-164, N4-(4-cyclopropylsulfonylaminomethyl)phenyl-5-methyl-N2-(4-propargylaminosulfonyl)phenyl-2,4-pyrimidinediamine], for which the IC50 amounted to 13.8 µM in test [1] and 0.16 µM in test [2].
Turning to `C#CCNS(=O)(=O)c1cccc(Nc2ncc(C)c(Nc3ccc(CNS(=O)(=O)C4CC4)cc3)n2)c1` [Compound I-165, N4-(4-cyclopropylsulfonylaminomethyl)phenyl-5-methyl-N2-(3-propargylaminosulfonyl)phenyl-2,4-pyrimidinediamine], the IC50 in test [1] came to 8.97 µM; in test [2], 0.15 µM.
The matching figures for `Cc1cnc(Nc2cccc(S(=O)(=O)NC(C)C)c2)nc1Nc1ccc(CNS(=O)(=O)C2CC2)cc1` [Compound I-173, N4-(4-cyclopropylsulfonylaminomethyl)phenyl-N2-(3-isopropylaminosulfonyl)phenyl-5-methyl-2,4-pyrimidinediamine]: 1.88 µM and 0.109 µM.
The matching figures for `CCNS(=O)(=O)c1ccc(Nc2ncc(C)c(Nc3ccc(CNS(=O)(=O)C4CC4)cc3)n2)cc1` [Compound I-175, N4-(4-cyclopropylsulfonylaminomethyl)phenyl-N2-(4-ethylaminosulfonyl)phenyl-5-methyl-2,4-pyrimidinediamine]: 2.37 µM and 0.0723 µM.
The corresponding values for `CCNS(=O)(=O)c1cccc(Nc2ncc(C)c(Nc3ccc(CNS(=O)(=O)C4CC4)cc3)n2)c1` [Compound I-176, N4-(4-cyclopropylsulfonylaminomethyl)phenyl-N2-(3-ethylaminosulfonyl)phenyl-5-methyl-2,4-pyrimidinediamine] are 10.4 µM and 0.0484 µM.
With `CCCNS(=O)(=O)c1cccc(Nc2ncc(C)c(Nc3ccc(CNS(=O)(=O)C4CC4)cc3)n2)c1` [Compound I-178, N4-(4-cyclopropylsulfonylaminomethyl)phenyl-5-methyl-N2-(3-propylaminosulfonyl)phenyl-2,4-pyrimidinediamine], the figures for the concentration for half-maximal inhibition (IC50) in test [1] and in test [2] were 5.45 µM and 0.0577 µM, respectively.
The matching figures for `Cc1cnc(Nc2cccc(S(=O)(=O)NCC3CC3)c2)nc1Nc1ccc(CNS(=O)(=O)C2CC2)cc1` [Compound I-180, N2-(3-cyclopropylmethylaminosulfonyl)phenyl-N4-(4-cyclopropylsulfonylaminomethyl)phenyl-5-methyl-2,4-pyrimidinediamine]: 2.22 µM and 0.0622 µM.
`COCCCNS(=O)(=O)c1ccc(Nc2ncc(C)c(Nc3ccc(CNS(=O)(=O)C4CC4)cc3)n2)cc1` [Compound I-181, N4-(4-cyclopropylsulfonylaminomethyl)phenyl-N2-[4-(3-methoxypropyl)aminosulfonyl]phenyl-5-methyl-2,4-pyrimidinediamine]: the IC50 in test [1] is 2.35 µM; in test [2] it was 0.243 µM.
The matching figures for `COCCCNS(=O)(=O)c1cccc(Nc2ncc(C)c(Nc3ccc(CNS(=O)(=O)C4CC4)cc3)n2)c1` [Compound I-182, N4-(4-cyclopropylsulfonylaminomethyl)phenyl-N2-[3-(3-methoxypropyl)aminosulfonyl]phenyl-5-methyl-2,4-pyrimidinediamine]: 2.25 µM and 0.103 µM.
As for `COCCNS(=O)(=O)c1cccc(Nc2ncc(C)c(Nc3ccc(CNS(=O)(=O)C4CC4)cc3)n2)c1` [Compound I-184, N4-(4-cyclopropylsulfonylaminomethyl)phenyl-N2-[3-(2-methoxyethyl)aminosulfonyl]phenyl-5-methyl-2,4-pyrimidinediamine], the 50% inhibitory concentration (IC50) in test [1] came to 1.41 µM; in test [2], 0.0978 µM.
The corresponding values for `CNS(=O)(=O)c1cc(Nc2ncc(C)c(Nc3ccc(CNS(=O)(=O)C4CC4)cc3)n2)ccc1C` [Compound I-185, N4-(4-cyclopropylsulfonylaminomethyl)phenyl-5-methyl-N2-(4-methyl-3-methylaminosulfonyl)phenyl-2,4-pyrimidinediamine] are 4.1 µM and 0.0853 µM.
The matching figures for `CCNS(=O)(=O)c1cc(Nc2ncc(C)c(Nc3ccc(CNS(=O)(=O)C4CC4)cc3)n2)ccc1C` [Compound I-186, N4-(4-cyclopropylsulfonylaminomethyl)phenyl-N2-(3-ethylaminosulfonyl-4-methyl)phenyl-5-methyl-2,4-pyrimidinediamine]: 1.76 µM and 0.073 µM.
The corresponding values for `CCCNS(=O)(=O)c1cc(Nc2ncc(C)c(Nc3ccc(CNS(=O)(=O)C4CC4)cc3)n2)ccc1C` [Compound I-187, N4-(4-cyclopropylsulfonylaminomethyl)phenyl-5-methyl-N2-(4-methyl-3-propylaminosulfonyl)phenyl-2,4-pyrimidinediamine] are 2.42 µM and 0.174 µM.
Regarding `C#CCNS(=O)(=O)c1cc(Nc2ncc(C)c(Nc3ccc(CNS(=O)(=O)C4CC4)cc3)n2)ccc1C` [Compound I-188, N4-(4-cyclopropylsulfonylaminomethyl)phenyl-5-methyl-N2-(4-methyl-3-propargylaminosulfonyl)phenyl-2,4-pyrimidinediamine], the IC50 in test [1] is 5.08 µM; in test [2] it was 0.193 µM.
The corresponding values for `Cc1ccc(Nc2ncc(C)c(Nc3ccc(CNS(=O)(=O)C4CC4)cc3)n2)cc1S(=O)(=O)NC(C)C` [Compound I-189, N4-(4-cyclopropylsulfonylaminomethyl)phenyl-N2-(3-isopropylaminosulfonyl-4-methyl)phenyl-5-methyl-2,4-pyrimidinediamine] are 1.72 µM and 0.153 µM.
Turning to `COCCNS(=O)(=O)c1cc(Nc2ncc(C)c(Nc3ccc(CNS(=O)(=O)C4CC4)cc3)n2)ccc1C` [Compound I-190, N4-(4-cyclopropylsulfonylaminomethyl)phenyl-N2-[3-(2-methoxyethyl)aminosulfonyl-4-methyl]phenyl-5-methyl-2,4-pyrimidinediamine], the IC50 in test [1] amounted to 1.36 µM; in test [2] it was 0.187 µM.
The corresponding values for `COCCCNS(=O)(=O)c1cc(Nc2ncc(C)c(Nc3ccc(CNS(=O)(=O)C4CC4)cc3)n2)ccc1C` [Compound I-191, N4-(4-cyclopropylsulfonylaminomethyl)phenyl-N2-[3-(3-methoxypropyl)aminosulfonyl-4-methyl]phenyl-5-methyl-2,4-pyrimidinediamine] are 3.06 µM and 0.247 µM.
The matching figures for `Cc1ccc(Nc2ncc(C)c(Nc3ccc(CNS(=O)(=O)C4CC4)cc3)n2)cc1S(=O)(=O)NCC1CC1` [Compound I-192, N2-(3-cyclopropylmethylaminosulfonyl-4-methyl)phenyl-N4-(4-cyclopropylsulfonylaminomethyl)phenyl-5-methyl-2,4-pyrimidinediamine]: 2.3 µM and 0.26 µM.
In the case of `Cc1ccc(Nc2ncc(C)c(Nc3ccc(CNS(=O)(=O)C4CC4)cc3)n2)cc1S(=O)(=O)NCc1ccccc1` [Compound I-195, N2-(3-benzylaminosulfonyl-4-methyl)phenyl-N4-(4-cyclopropylsulfonylaminomethyl)phenyl-5-methyl-2,4-pyrimidinediamine], the IC50 in test [1] came out at 3.54 µM; in test [2], 0.23 µM.
The matching figures for `Cc1ccc(Nc2ncc(C)c(Nc3ccc(CNS(=O)(=O)C4CC4)cc3)n2)cc1S(=O)(=O)Nc1ccccc1` [Compound I-202, N4-(4-cyclopropylsulfonylaminomethyl)phenyl-5-methyl-N2-(4-methyl-3-phenylaminosulfonyl)phenyl-2,4-pyrimidinediamine]: 6.05 µM and 0.482 µM.

Source of the values: US9481654B2, “Compositions and methods for inhibition of the JAK pathway” (Rigel Pharmaceuticals, Inc., priority 2006, dated 2016).
